In patent publication US9513294B2, “Megastokes amino-triazolyl-BODIPY compounds and applications to live neuron staining and human serum albumin FA1 drug site probing” (National University of Singapore, priority 2012, dated 2016):

experiment: Quantum yield measurements versus Acridine Yellow in EtOH; format: physicochemical; conditions: BDCCA library, Table 4; excitation 460 nm
Summary of the method: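 Fluorescence quantum yield is relative to Acridine Yellow in EtOH (Φ 0.47), with excitation at 460 nm. Integrated emission at 510–700 nm was corrected for absorbance at the excitation wavelength and for solvent refractive index.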

Row | SMILES | φ (quantum yield) [%]
1 | COc1ccc2cc(-c3cn(-c4ccc5n4[B-](F)(F)[N+]4=C(N6CCCCC6)C=CC4=C5c4ccc(NC(=O)CCl)cc4)nn3)ccc2c1 [BDCCA-22] | 1.1
2 | O=C(CCl)Nc1ccc(C2=C3C=CC(N4CCCCC4)=[N+]3[B-](F)(F)n3c2ccc3-n2cc(-c3ccc(-c4ccccc4)cc3)nn2)cc1 [BDCCA-23] | 1.2
3 | O=C(CCl)Nc1ccc(C2=C3C=CC(N4CCCCC4)=[N+]3[B-](F)(F)n3c2ccc3-n2cc(-c3ccc(F)cc3F)nn2)cc1 [BDCCA-26] | 1.3
4 | COc1cccc(-c2cn(-c3ccc4n3[B-](F)(F)[N+]3=C(N5CCCCC5)C=CC3=C4c3ccc(NC(=O)CCl)cc3)nn2)c1 [BDCCA-27] | 2.3
5 | CCCCCc1ccc(-c2cn(-c3ccc4n3[B-](F)(F)[N+]3=C(N5CCCCC5)C=CC3=C4c3ccc(NC(=O)CCl)cc3)nn2)cc1 [BDCCA-29] | 1.7
6 | O=C(CCl)Nc1ccc(C2=C3C=CC(N4CCCCC4)=[N+]3[B-](F)(F)n3c2ccc3-n2cc(-c3cc(C(F)(F)F)cc(C(F)(F)F)c3)nn2)cc1 [BDCCA-30] | 2.6
7 | O=C(CCl)Nc1ccc(C2=C3C=CC(N4CCCCC4)=[N+]3[B-](F)(F)n3c2ccc3-n2cc(-c3cccc(F)c3)nn2)cc1 [BDCCA-31] | 1.0
8 | CC(C)CCc1cn(-c2ccc3n2[B-](F)(F)[N+]2=C(N4CCCCC4)C=CC2=C3c2ccc(NC(=O)CCl)cc2)nn1 [BDCCA-36] | 0.5
9 | O=C(CCl)Nc1ccc(C2=C3C=CC(N4CCCCC4)=[N+]3[B-](F)(F)n3c2ccc3-n2cc(C3=CCCCC3)nn2)cc1 [BDCCA-37] | 1.7
10 | CCCCc1cn(-c2ccc3n2[B-](F)(F)[N+]2=C(N4CCCCC4)C=CC2=C3c2ccc(NC(=O)CCl)cc2)nn1 [BDCCA-42] | 1.3
11 | CC(C)Cc1cn(-c2ccc3n2[B-](F)(F)[N+]2=C(N4CCCCC4)C=CC2=C3c2ccc(NC(=O)CCl)cc2)nn1 [BDCCA-43] | 0.8
12 | CCCCCCCCc1cn(-c2ccc3n2[B-](F)(F)[N+]2=C(N4CCCCC4)C=CC2=C3c2ccc(NC(=O)CCl)cc2)nn1 [BDCCA-44] | 0.7
13 | Cc1cccc(-c2cn(-c3ccc4n3[B-](F)(F)[N+]3=C(N5CCCCC5)C=CC3=C4c3ccc(NC(=O)CCl)cc3)nn2)c1 [BDCCA-45] | 2.7
14 | CCc1ccc(-c2cn(-c3ccc4n3[B-](F)(F)[N+]3=C(N5CCCCC5)C=CC3=C4c3ccc(NC(=O)CCl)cc3)nn2)cc1 [BDCCA-46] | 1.2
15 | CCCCCCc1cn(-c2ccc3n2[B-](F)(F)[N+]2=C(N4CCCCC4)C=CC2=C3c2ccc(NC(=O)CCl)cc2)nn1 [BDCCA-47] | 1.8
16 | CCCc1cn(-c2ccc3n2[B-](F)(F)[N+]2=C(N4CCCCC4)C=CC2=C3c2ccc(NC(=O)CCl)cc2)nn1 [BDCCA-48] | 1.4
17 | CCCCCCCCCCc1cn(-c2ccc3n2[B-](F)(F)[N+]2=C(N4CCCCC4)C=CC2=C3c2ccc(NC(=O)CCl)cc2)nn1 [BDCCA-49] | 1.2
18 | CCCCCCCc1cn(-c2ccc3n2[B-](F)(F)[N+]2=C(N4CCCCC4)C=CC2=C3c2ccc(NC(=O)CCl)cc2)nn1 [BDCCA-50] | 1.0
19 | O=C(CCl)Nc1ccc(C2=C3C=CC(N4CCCCC4)=[N+]3[B-](F)(F)n3c2ccc3-n2cc(C3(O)CCCC3)nn2)cc1 [BDCCA-67] | 0.7
20 | O=C(CCl)Nc1ccc(C2=C3C=CC(N4CCCCC4)=[N+]3[B-](F)(F)n3c2ccc3-n2cc(CO)nn2)cc1 [BDCCA-70] | 0.6

same assay, conditions: MK library, Table 5; excitation 460 nm

Row | SMILES | φ (quantum yield) [%]
21 | CCCC(C)c1cn(-c2ccc3n2[B-](F)(F)[N+]2=C(N4CC(C)OC(C)C4)C=CC2=C3c2ccc(N)cc2)nn1 (stereo not drawn) [MK20-3] | 0.10

experiment: Absorbance and fluorescence emission spectra (SpectraMax M2); format: physicochemical; conditions: BDCCA library, Table 4
Summary of the method: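 Absorbance and emission maxima measured on a SpectraMax M2 spectrophotometer, which also gave quantum yield data; analysis in GraphPrism.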

Row | SMILES | λmax Absorp. [nm] | λmax Emission [nm]
22 | COc1ccc2cc(-c3cn(-c4ccc5n4[B-](F)(F)[N+]4=C(N6CCCCC6)C=CC4=C5c4ccc(NC(=O)CCl)cc4)nn3)ccc2c1 [BDCCA-22] | 464 | 586
23 | O=C(CCl)Nc1ccc(C2=C3C=CC(N4CCCCC4)=[N+]3[B-](F)(F)n3c2ccc3-n2cc(-c3ccc(-c4ccccc4)cc3)nn2)cc1 [BDCCA-23] | 464 | 575
24 | O=C(CCl)Nc1ccc(C2=C3C=CC(N4CCCCC4)=[N+]3[B-](F)(F)n3c2ccc3-n2cc(-c3ccc(F)cc3F)nn2)cc1 [BDCCA-26] | 465 | 568
25 | COc1cccc(-c2cn(-c3ccc4n3[B-](F)(F)[N+]3=C(N5CCCCC5)C=CC3=C4c3ccc(NC(=O)CCl)cc3)nn2)c1 [BDCCA-27] | 463 | 552
26 | CCCCCc1ccc(-c2cn(-c3ccc4n3[B-](F)(F)[N+]3=C(N5CCCCC5)C=CC3=C4c3ccc(NC(=O)CCl)cc3)nn2)cc1 [BDCCA-29] | 464 | 548
27 | O=C(CCl)Nc1ccc(C2=C3C=CC(N4CCCCC4)=[N+]3[B-](F)(F)n3c2ccc3-n2cc(-c3cc(C(F)(F)F)cc(C(F)(F)F)c3)nn2)cc1 [BDCCA-30] | 458 | 556
28 | O=C(CCl)Nc1ccc(C2=C3C=CC(N4CCCCC4)=[N+]3[B-](F)(F)n3c2ccc3-n2cc(-c3cccc(F)c3)nn2)cc1 [BDCCA-31] | 462 | 568
29 | CC(C)CCc1cn(-c2ccc3n2[B-](F)(F)[N+]2=C(N4CCCCC4)C=CC2=C3c2ccc(NC(=O)CCl)cc2)nn1 [BDCCA-36] | 467 | 584
30 | O=C(CCl)Nc1ccc(C2=C3C=CC(N4CCCCC4)=[N+]3[B-](F)(F)n3c2ccc3-n2cc(C3=CCCCC3)nn2)cc1 [BDCCA-37] | 465 | 565
31 | CCCCc1cn(-c2ccc3n2[B-](F)(F)[N+]2=C(N4CCCCC4)C=CC2=C3c2ccc(NC(=O)CCl)cc2)nn1 [BDCCA-42] | 467 | 577
32 | CC(C)Cc1cn(-c2ccc3n2[B-](F)(F)[N+]2=C(N4CCCCC4)C=CC2=C3c2ccc(NC(=O)CCl)cc2)nn1 [BDCCA-43] | 466 | 583
33 | CCCCCCCCc1cn(-c2ccc3n2[B-](F)(F)[N+]2=C(N4CCCCC4)C=CC2=C3c2ccc(NC(=O)CCl)cc2)nn1 [BDCCA-44] | 466 | 582
34 | Cc1cccc(-c2cn(-c3ccc4n3[B-](F)(F)[N+]3=C(N5CCCCC5)C=CC3=C4c3ccc(NC(=O)CCl)cc3)nn2)c1 [BDCCA-45] | 463 | 555
35 | CCc1ccc(-c2cn(-c3ccc4n3[B-](F)(F)[N+]3=C(N5CCCCC5)C=CC3=C4c3ccc(NC(=O)CCl)cc3)nn2)cc1 [BDCCA-46] | 464 | 568
36 | CCCCCCc1cn(-c2ccc3n2[B-](F)(F)[N+]2=C(N4CCCCC4)C=CC2=C3c2ccc(NC(=O)CCl)cc2)nn1 [BDCCA-47] | 466 | 560
37 | CCCc1cn(-c2ccc3n2[B-](F)(F)[N+]2=C(N4CCCCC4)C=CC2=C3c2ccc(NC(=O)CCl)cc2)nn1 [BDCCA-48] | 466 | 569
38 | CCCCCCCCCCc1cn(-c2ccc3n2[B-](F)(F)[N+]2=C(N4CCCCC4)C=CC2=C3c2ccc(NC(=O)CCl)cc2)nn1 [BDCCA-49] | 466 | 575
39 | CCCCCCCc1cn(-c2ccc3n2[B-](F)(F)[N+]2=C(N4CCCCC4)C=CC2=C3c2ccc(NC(=O)CCl)cc2)nn1 [BDCCA-50] | 466 | 568
40 | O=C(CCl)Nc1ccc(C2=C3C=CC(N4CCCCC4)=[N+]3[B-](F)(F)n3c2ccc3-n2cc(C3(O)CCCC3)nn2)cc1 [BDCCA-67] | 468 | 590
41 | O=C(CCl)Nc1ccc(C2=C3C=CC(N4CCCCC4)=[N+]3[B-](F)(F)n3c2ccc3-n2cc(CO)nn2)cc1 [BDCCA-70] | 465 | 584

same assay, conditions: MK library, Table 5

Row | SMILES | λmax Absorp. [nm] | λmax Emission [nm]
42 | CCCC(C)c1cn(-c2ccc3n2[B-](F)(F)[N+]2=C(N4CC(C)OC(C)C4)C=CC2=C3c2ccc(N)cc2)nn1 (stereo not drawn) [MK20-3] | 476 | 573
